The subject of one data set is AD38 cells. In words: AD38 viability normalized to DMSO control. It is filed as cell-based. The conditions noted are these: 10 μM compound, vs DMSO control; Table 9. The protocol:
AD38 cells were then re-suspended with 10 mL of treatment medium and counted. Wells of a collagen coated 96-well NUNC microtiter plate were seeded at 50,000/well in 180 μL of treatment medium, and 20 μL of either 10% DMSO (Control) or a 10× solution of test compound in 10% DMSO in treatment media was added for a final compound concentration 1, 3, or 10 μM (1.0% final [DMSO]) and plates were incubated for 6 days at 37° C.

The subject of data set [1] is HBV viral load, AD38 cells. In words: Activity of test compounds on viral production from AD38 cells (viral load by quantitative PCR of the core sequence in supernatant). Format: cell-based, Hepatitis B virus. The settings on record: 10 μM compound, 6 days at 37° C., vs DMSO control wells, Table 9; for activity at 10 µM: Hepatitis B virus, 144 h, read-out: AD38 Viral Load (CpAM/DMSO %) at 10 μM. In a few lines:
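Cells seeded at 50,000/well on collagen-coated plates and exposed for 6 days at 37 °C to compound at 1, 3 or 10 μM final (1.0% DMSO). Supernatant viral DNA measured by TaqMan qPCR of the core sequence against known standards, compared with DMSO control wells.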

In the case of `Cc1ccc(S(=O)(=O)N2CCN(c3nc(C)cc(Nc4ccc(F)cc4)n3)CC2)cc1` [Compound 1339], the “AD38 Viability Normalized Result (CPAM/DMSO %) at 10 μM” value in the data set on AD38 cells stood at 93%. Moreover, the activity at 10 µM in data set [1] is 50%.
Taken in the same sequence, the figures for `O=S(=O)(c1ccc(OC(F)(F)F)cc1)N1CCN(c2nc(Nc3ccc(F)cc3)cc(C(F)(F)F)n2)CC1` [Compound 1340] were 88% and 1%.
In the same order, the values of `CCOc1ccc(S(=O)(=O)N2CCN(c3nc(Nc4ccc(F)cc4)cc(C(F)(F)F)n3)CC2)cc1` [Compound 1341] are 95% and 1%.
In the same order, the values of `CCCCOc1ccc(S(=O)(=O)N2CCN(c3nc(Nc4ccc(F)cc4)cc(C(F)(F)F)n3)CC2)cc1` [Compound 1342] are 107% and 17%.
Take `O=S(=O)(c1ccccc1)N1CCN(c2nc(Nc3ccc(F)cc3)cc(C(F)(F)F)n2)CC1` [Compound 1343]: the “AD38 Viability Normalized Result (CPAM/DMSO %) at 10 μM” value in the data set with AD38 cells was determined as 31%. Further, in data set [1], the activity at 10 µM amounted to 6%.
Turning to `Cc1ccc(S(=O)(=O)N2CCN(c3nc(Nc4ccc(F)cc4)cc(C(F)(F)F)n3)CC2)cc1` [Compound 1344], the “AD38 Viability Normalized Result (CPAM/DMSO %) at 10 μM” value in the data set on AD38 cells is recorded as 0%. The activity at 10 µM in data set [1] came out at 2%.
Taken in the same sequence, the figures for `O=S(=O)(c1ccc(F)cc1)N1CCN(c2nc(Nc3ccc(F)cc3)cc(C(F)(F)F)n2)CC1` [Compound 1345] were 77% and 14%.
`Cc1cc(Nc2ccc(F)cc2)nc(N2CCN(S(=O)(=O)c3ccc(F)cc3)CC2)n1` [Compound 1347]: the “AD38 Viability Normalized Result (CPAM/DMSO %) at 10 μM” value in the data set with AD38 cells came out at 7%. The activity at 10 µM in data set [1] came out at 2%.
In the same order, the values of `COc1ccc(S(=O)(=O)N2CCN(c3nc(C)cc(Nc4ccc(F)cc4)n3)CC2C)cc1` (stereo not drawn) [Compound 1348] are 102% and 5%.
In the same order, the values of `COc1ccc(S(=O)(=O)N2CCN(c3nc(C)cc(Nc4ccc(C#N)cc4)n3)C(=O)C2)cc1` [Compound 1352] are 96% and 89%.
In the same order, the values of `CCOc1ccc(S(=O)(=O)N2CCN(c3nc(Nc4ccc(C#N)cc4)cc(-c4nccs4)n3)CC2)cc1` [Compound 1353] are 107% and 7%.
Turning to `CCCCOc1ccc(S(=O)(=O)N2CCN(c3nc(Nc4ccc(C#N)cc4)cc(-c4nccs4)n3)CC2)cc1` [Compound 1354], the “AD38 Viability Normalized Result (CPAM/DMSO %) at 10 μM” value with AD38 cells is listed as 97%. Moreover, the activity at 10 µM in data set [1] is 24%.
In the case of `N#Cc1ccc(Nc2cc(-c3nccs3)nc(N3CCN(S(=O)(=O)c4ccccc4)CC3)n2)cc1` [Compound 1355], the “AD38 Viability Normalized Result (CPAM/DMSO %) at 10 μM” value with AD38 cells came out at 103%. The activity at 10 µM in data set [1] stood at 5%.
In the same order, the values of `Cc1ccc(S(=O)(=O)N2CCN(c3nc(Nc4ccc(C#N)cc4)cc(-c4nccs4)n3)CC2)cc1` [Compound 1356] are 97% and 6%.
Take `O=S(=O)(c1ccc(OC(F)(F)F)cc1)N1CCN(c2nc(Nc3ccc(F)cc3)cc(-c3nccs3)n2)CC1` [Compound 1357]: in the data set with AD38 cells, the “AD38 Viability Normalized Result (CPAM/DMSO %) at 10 μM” value amounted to 95%. In data set [1], the “AD38 Viral Load (CpAM/DMSO %) at 10 μM” value was 67%.
Regarding `CCOc1ccc(S(=O)(=O)N2CCN(c3nc(Nc4ccc(F)cc4)cc(-c4nccs4)n3)CC2)cc1` [Compound 1358], in the data set with AD38 cells, the “AD38 Viability Normalized Result (CPAM/DMSO %) at 10 μM” value is 99%. Also, the activity at 10 µM in data set [1] is 77%.
In the case of `CCCCOc1ccc(S(=O)(=O)N2CCN(c3nc(Nc4ccc(F)cc4)cc(-c4nccs4)n3)CC2)cc1` [Compound 1359], the “AD38 Viability Normalized Result (CPAM/DMSO %) at 10 μM” value in the data set with AD38 cells came to 97%. Moreover, the “AD38 Viral Load (CpAM/DMSO %) at 10 μM” value in data set [1] is recorded as 60%.
As for `O=S(=O)(c1ccccc1)N1CCN(c2nc(Nc3ccc(F)cc3)cc(-c3nccs3)n2)CC1` [Compound 1360], the “AD38 Viability Normalized Result (CPAM/DMSO %) at 10 μM” value in the data set with AD38 cells turned out to be 94%. The activity at 10 µM in data set [1] turned out to be 28%.
On to `Cc1ccc(S(=O)(=O)N2CCN(c3nc(Nc4ccc(F)cc4)cc(-c4nccs4)n3)CC2)cc1` [Compound 1361], for which, in the data set on AD38 cells, the “AD38 Viability Normalized Result (CPAM/DMSO %) at 10 μM” value was found to be 95%. In data set [1], the activity at 10 µM is 25%.
In the same order, the values of `O=S(=O)(c1ccc(F)cc1)N1CCN(c2nc(Nc3ccc(F)cc3)cc(-c3nccs3)n2)CC1` [Compound 1362] are 88% and 54%.
In the same order, the values of `COc1ccc(S(=O)(=O)N2CCN(c3nc(C)cc(Nc4ccc(C#N)cc4)n3)C(C)C2)cc1` (stereo not drawn) [Compound 1363] are 93% and 1%.
In the same order, the values of `N#Cc1ccc(Nc2cc(-c3nccs3)nc(N3CCN(S(=O)(=O)c4ccc(OC(F)(F)F)cc4)CC3)n2)cc1` [Compound 1364] are 100% and 62%.
With `N#Cc1ccc(Nc2cc(-c3nccs3)nc(N3CCN(S(=O)(=O)c4ccc(F)cc4)CC3)n2)cc1` [Compound 1365], the “AD38 Viability Normalized Result (CPAM/DMSO %) at 10 μM” value with AD38 cells is on record as 98%. For the same molecule, in data set [1], the activity at 10 µM was determined as 53%.
Take `COc1ccc(S(=O)(=O)N2CCN(c3nc(C)cc(Nc4ccc(C#N)cc4)n3)CC2=O)cc1` [Compound 1366, 4-((2-(4-((4-methoxyphenyl)sulfonyl)-3-oxopiperazin-1-yl)-6-methylpyrimidin-4-yl)amino) benzonitrile]: in the data set on AD38 cells, the “AD38 Viability Normalized Result (CPAM/DMSO %) at 10 μM” value is 108%. Further, the activity at 10 µM in data set [1] is 41%.
As to `O=S(=O)(c1ccc(OC(F)(F)F)cc1)N1CCN(c2nc(Nc3ccc(F)cc3)cc(-c3nccs3)n2)CC1` [Compound 1367], the “AD38 Viability Normalized Result (CPAM/DMSO %) at 10 μM” value with AD38 cells worked out at 105%. In data set [1], the “AD38 Viral Load (CpAM/DMSO %) at 10 μM” value was 44%.
Taken in the same sequence, the figures for `CCCCOc1ccc(S(=O)(=O)N2CCN(c3nc(Nc4ccc(F)cc4)cc(-c4nccs4)n3)CC2)cc1` [Compound 1368] were 94% and 147%.
In the case of `CCCCOc1ccc(S(=O)(=O)N2CCN(c3nc(Nc4ccc(C#N)cc4)cc(-c4cncs4)n3)CC2)cc1` [Compound 1369], the “AD38 Viability Normalized Result (CPAM/DMSO %) at 10 μM” value in the data set with AD38 cells stood at 96%. Also, the activity at 10 µM in data set [1] turned out to be 56%.
In the same order, the values of `COc1ccc(S(=O)(=O)N2CCN(c3nc(C)cc(Nc4ccc(F)cc4)n3)CC2(C)C)cc1` [Compound 1370] are 114% and 12%.
Taken in the same sequence, the figures for `COc1ccc(S(=O)(=O)N2CCN(c3nc(C)cc(Nc4ccc(F)cc4)n3)C(C)C2)cc1` (stereo not drawn) [Compound 1371] were 111% and 29%.
In the same order, the values of `N#Cc1ccc(Nc2cc(-c3cncs3)nc(N3CCN(S(=O)(=O)c4ccc(OC(F)(F)F)cc4)CC3)n2)cc1` [Compound 1372] are 109% and 21%.
Take `CCOc1ccc(S(=O)(=O)N2CCN(c3nc(Nc4ccc(C#N)cc4)cc(-c4cncs4)n3)CC2)cc1` [Compound 1373]: in the data set on AD38 cells, the “AD38 Viability Normalized Result (CPAM/DMSO %) at 10 μM” value came to 109%. For the same molecule, in data set [1], the activity at 10 µM worked out at 8%.
Taken in the same sequence, the figures for `N#Cc1ccc(Nc2cc(-c3cncs3)nc(N3CCN(S(=O)(=O)c4ccccc4)CC3)n2)cc1` [Compound 1374] were 107% and 7%.
Consider `O=S(=O)(c1ccc(F)cc1)N1CCN(c2nc(Nc3ccc(F)cc3)cc(-c3nccs3)n2)CC1` [Compound 1375], for which the “AD38 Viability Normalized Result (CPAM/DMSO %) at 10 μM” value in the data set on AD38 cells is 104%. In addition, in data set [1], the “AD38 Viral Load (CpAM/DMSO %) at 10 μM” value amounted to 43%.
For the molecule `COc1ccc(S(=O)(=O)N2CCN(c3nc(C)cc(Nc4ccc(C#N)cc4)n3)CC2(C)C)cc1` [Compound 1376], the “AD38 Viability Normalized Result (CPAM/DMSO %) at 10 μM” value with AD38 cells came out at 121%. Further, the activity at 10 µM in data set [1] amounted to 20%.
In the same order, the values of `Cc1cc(Nc2ccc(C#N)cc2)nc(N2CCN(S(=O)(=O)c3ccc(OCCN(C)C)cc3)CC2)n1` [Compound 1377, 4-((2-(4-((4-(2-(dimethylamino)ethoxy)phenyl)sulfonyl)piperazin-1-yl)-6-methylpyrimidin-4-yl)amino) benzonitrile] are 15% and 1%.
Taken in the same sequence, the figures for `Cc1cc(Nc2ccc(F)cc2)nc(N2CCN(S(=O)(=O)c3ccc(OCCN(C)C)cc3)CC2)n1` [Compound 1378, 2-(4-((4-(2-(dimethylamino)ethoxy)phenyl)sulfonyl)piperazin-1-yl)-N-(4-fluorophenyl)-6-methylpyrimidin-4-amine] were 1% and 13%.
As for `Cc1ccc(S(=O)(=O)N2CCN(c3nc(Nc4ccc(C#N)cc4)cc(-c4cncs4)n3)CC2)cc1` [Compound 1379], the “AD38 Viability Normalized Result (CPAM/DMSO %) at 10 μM” value with AD38 cells is 110%. The activity at 10 µM in data set [1] came to 6%.
Taken in the same sequence, the figures for `N#Cc1ccc(Nc2cc(-c3cncs3)nc(N3CCN(S(=O)(=O)c4ccc(F)cc4)CC3)n2)cc1` [Compound 1380] were 108% and 10%.
As to `Cc1cc(Nc2ccc(F)cc2)nc(N2CCN(S(=O)(=O)c3ccc(C(=O)O)cc3)CC2)n1` [Compound 1381, 4-((4-(4-((4-fluorophenyl)amino)-6-methylpyrimidin-2-yl)piperazin-1-yl)sulfonyl) benzoic acid], the “AD38 Viability Normalized Result (CPAM/DMSO %) at 10 μM” value in the data set with AD38 cells amounted to 107%. For the same molecule, the activity at 10 µM in data set [1] was 46%.

The record behind these values is US10273228B2, “Hepatitis B viral assembly effectors” (Indiana University Research and Technology Corporation, priority 2015, dated 2019).
